Assay results from PMC6272399, “Anti-Proliferative Effect and Induction of Apoptosis in Androgen-Independent Human Prostate Cancer Cells by 1,5-Bis(2-hydroxyphenyl)-1,4-pentadiene-3-one” (Molecules, 2015).

How the values were obtained:
[1] = test system: WRL 68 (human epithelial hepatocytes); assay: MTT cytotoxicity assay, normal WRL 68; format: cell-based; conditions: WRL68, normal cell line, 72 h treatment, mean ± SD, read-out: EC50 Values (µM) of Compounds on Cell Lines WRL-68
Procedure: Cell viability was determined by the MTT [3-(4,5-dimethylthiazol-2-yl)-2,5-diphenyltetrazolium bromide] assay, as previously described by Mosmann with modifications. Briefly, cells were detached from the tissue culture flask and pelleted by centrifugation at 1000 rpm for 5 min. Then, the density of the viable cells was counted using a haemocytometer. Cells were then plated in a 96-well flat bottom micro-titer plate (Nunc) at a concentration of 10^4 cells/mL and incubated in a 5% CO2 incubator at 37 °C overnight to allow the cells to adhere to the bottom of the wells. After 24 h, the media was aspirated off and replaced with fresh media containing sample compounds (curcumin and curcumin analogues) of seven different concentrations ranging from 1.56 µM–100 µM and incubated at 37 °C, 5% CO2 for 72 h. Separately, the sample compounds were prepared in a stock solution of 50 mM in 100% dimethyl sulfoxide (DMSO, Molecular Biology Grade, Sigma-Aldrich, St. Louis, MO, USA) and diluted in the culture media to a working concentration of 200 µM. Curcumin, the parent compound which was used as the positive control was also prepared in the similar manner. A two-fold serial dilution was done for each sample in triplicates down the columns of the plate, yielding a final volume and concentration of 100 µL in 0.2% DMSO in each wells. Following treatment, 50 µL MTT solutions (0.5 mg/mL in PBS) was added to each well and incubated for another 4 h at 37 °C in a humidified 5% CO2 incubator. The supernatant was replaced with 100 µL of DMSO and the optical density (OD) was measured at 570/650 nm using a micro-plate ELISA reader (Bio-Rad Laboratories, Hercules, CA, USA). The percentage of viable cells was calculated based on the ratio of the corrected absorbance of sample-treated cells to the corrected absorbance of the control (0.2% DMSO-treated cells) multiplied by 100. The percentage of cell viability was determined as follows: % Cell viability= OD of treated cells /OD of control ×100
For each compound tested, the EC50 value was generated from the log dose-response curves for each cell line using the Graphpad Prism version 5.04 for Windows (Graphpad Software, La Jolla, CA, USA). […] Cytotoxicity of each tested compound is expressed as the EC50 value. Based on the EC50 values, selectivity index (SX) value was also determined. Selectivity index is a special parameter applied as a selectivity indicator of tested compounds towards cancer cells. The SX represents the ratio of EC50 value obtained in toxicity testing using the normal cell lines to the EC50 values of the toxicity testing of the cancer cells, and then multiplied by 100. All the compounds were assessed for their potential toxicity against normal, non-cancerous cells. […] The SX values were calculated using the following equation: SX = EC50 (normal cells)/EC50 (cancer cells) × 100

PC-3 cells = assay: BrdU cell proliferation assay, PC-3; format: cell-based, human; conditions: PC-3, BrdU
Procedure: The anti-proliferative effects of compound on treated cells, was measured using the BrdU cell proliferation assay kit (Roche Applied Science Diagnostics, Indianapolis, IN, USA) according to the manufacturer’s protocol. The assay was based on incorporation of BrdU during DNA synthesis in proliferating cells. Cells were plated at a concentration of 10^4 cells/mL in a 96-well microtiter plate and incubated overnight. The cells were treated with compounds and curcumin (concentrations ranging from 1.56 µM–100 µM) as positive control for 24, 48 and 72 h respectively. Then, BrdU labeling solution (5 µL, diluted by 1/100 in culture media) was added to each well and incubated for 2 h at 37 °C. The media was replaced with fix/denaturing solution (100 µL) and incubated for 30 min at room temperature. Then, the fix/denaturing solution was removed by tapping off and followed by addition of 50 µL anti-BrdU antibody (50 µL, diluted by 1/100 in dilution buffer) to each well and further incubated for another 90 min at room temperature. Next, the cells were washed 3 times with wash buffer and substrate solution (50 µL) was added to each well. The plate was left for 10 min at room temperature in the dark and the absorbance was measured at a wavelength of 370 nm with a reference wavelength of 492 nm using a micro-plate ELISA reader (Bio-Rad). The percentage of BrdU incorporation was determined based on the ratio of absorbance of sample treated-cells to absorbance of control (untreated cells/DMSO only) multiplied by 100.

DU 145 cells = assay: AO/EB double staining, morphology and quantification of apoptotic and necrotic cells, DU 145; format: cell-based, human; conditions: for necrotic cells: approximate
Procedure: Cell morphological changes were assessed by the differential staining DNA-intercalate fluorescent dyes acridine orange (AO) and ethidium bromide (EB). Cells (3 × 10^5) were seeded in a 6-well tissue culture plates, treated with MS17 at various concentrations (EC50, 2 × EC50, 3 × EC50) and incubated for 12, 24, 48 and 72 h time intervals. After incubation, cell pellets were suspended in 50 µL of cold PBS. To each samples, 10 µL of cell suspension was added with 1 µL of AO/EB dye mixture (1 part of 100 µg/mL of AO in PBS; 1 part of 100 µg/mL of EB in PBS) prior to microscopic examination. Ten microliter of the cell suspension mixed with the dye mixture was placed on a glass microscopic slide covered with a cover slip and was observed and photographed with a fluorescence microscope using a fluorescein filter (BX41, Olympus, Center Valley, PA, USA). A minimum of 200 total targeted cells were counted per sample and the percentage of cells from each population (viable, early apoptosis, late apoptosis and necrosis) was calculated. The experiment was conducted in triplicates. Untreated cells containing DMSO alone were used as negative control.

In the case of `O=C(C=Cc1ccccc1O)C=Cc1ccccc1O` [MS17, 1,5-bis(2-hydroxyphenyl)-1,4-pentadiene-3-one], the EC50 [1] is reported as 5.5 ± 0.5 µM, the “concentration from which anti-proliferative activity is significant” value (PC-3 cells; 24 h) is reported as 6.3 µM and the “concentration from which anti-proliferative activity is significant” value (PC-3 cells; 48 h) is reported as 12.5 µM. The “concentration from which anti-proliferative activity is significant” value (PC-3 cells; 72 h) was 12.5 µM, the necrotic cells (DU 145 cells; DU 145, 4.2 µM, 48 h) was “approximately 10%” and the “morphological observation of cell nuclei (AO/EB)” value (DU 145 cells; DU 145, MS17-treated vs untreated) was “typical signs of apoptosis such as cell shrinkage, formation of apoptotic bodies and membrane blebbing”. The necrotic cells (DU 145 cells; DU 145, all examined doses, 24 h) was under 5%.
